Results from the supplement of paper PMC10307832.

Key:
Test in all cases: relative viability (nuclei count vs DMSO), 5 days (fraction); higher = more cells survive
LU99A = test system: LU99A
Method in brief: (§1)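 Lung cancer cell lines were pin-tool dosed in 1536-well plates on the day after seeding, with either a lone drug or a fixed anchor-drug dose plus five library-drug doses (not always all listed) in √10 steps. Nuclei were counted on 4× images after 5 days. Relative viability is the ratio of treated-well to vehicle-well nuclei counts, with each value a median of duplicate plates.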

SK-MES-1 = test system: SK-MES-1
Method in brief: as §1

HARA = test system: HARA
Method in brief: as §1

COR-L23 = test system: COR-L23
Method in brief: as §1

COR-L 105 = test system: COR-L 105
Method in brief: as §1

LXF-289 = test system: LXF-289
Method in brief: as §1

NCI-H727 = test system: NCI-H727
Method in brief: as §1

NCI-H2170 = test system: NCI-H2170
Method in brief: as §1

CAL-12T = test system: CAL-12T
Method in brief: as §1

NCI-H2009 = test system: NCI-H2009
Method in brief: as §1

HCC-366 = test system: HCC-366
Method in brief: as §1

PC-3 [JPC-3] = test system: PC-3 [JPC-3]
Method in brief: as §1

NCI-H2126 = test system: NCI-H2126
Method in brief: as §1

BEN = test system: BEN
Method in brief: as §1

HCC-15 = test system: HCC-15
Method in brief: as §1

HCC-827 = test system: HCC-827
Method in brief: as §1

NCI-H1993 = test system: NCI-H1993
Method in brief: as §1

HCC-44 = test system: HCC-44
Method in brief: as §1

LCLC-97TM1 = test system: LCLC-97TM1
Method in brief: as §1

PC-14 = test system: PC-14
Method in brief: as §1

LC-2-ad = test system: LC-2-ad
Method in brief: as §1

HOP-62 = test system: HOP-62
Method in brief: as §1

NCI-H2087 = test system: NCI-H2087
Method in brief: as §1

## O=c1[nH]c2ccccc2n1C1CCN(CCCC(c2ccc(F)cc2)c2ccc(F)cc2)CC1 [Pimozide] + CC1(C)CCC(c2ccc(Cl)cc2)=C(CN2CCN(c3ccc(C(=O)NS(=O)(=O)c4ccc(N[C@H](CCN5CCOCC5)CSc5ccccc5)c(S(=O)(=O)C(F)(F)F)c4)cc3)CC2)C1 [Navitoclax] (partner 0.5 µM)
LU99A; first compound 0.08 µM
  relative viability: 0.794
LU99A; first compound 0.253 µM
  relative viability: 0.772
LU99A; first compound 0.8 µM
  relative viability: 0.716
LU99A; first compound 2.53 µM
  relative viability: 0.875
LU99A; first compound 8 µM
  relative viability: 0.806
SK-MES-1; first compound 0.08 µM
  relative viability: 1.31
SK-MES-1; first compound 0.253 µM
  relative viability: 1.25
SK-MES-1; first compound 0.8 µM
  relative viability: 1.18
SK-MES-1; first compound 2.53 µM
  relative viability: 1.21
SK-MES-1; first compound 8 µM
  relative viability: 1.08
HARA; first compound 0.08 µM
  relative viability: 1.11
HARA; first compound 0.253 µM
  relative viability: 1.18
HARA; first compound 0.8 µM
  relative viability: 1.1
HARA; first compound 2.53 µM
  relative viability: 1.12
HARA; first compound 8 µM
  relative viability: 1.14
COR-L23; first compound 0.08 µM
  relative viability: 1.02
COR-L23; first compound 0.253 µM
  relative viability: 0.923
COR-L23; first compound 0.8 µM
  relative viability: 0.913
COR-L23; first compound 2.53 µM
  relative viability: 1.14
COR-L23; first compound 8 µM
  relative viability: 0.933
COR-L 105; first compound 0.253 µM
  relative viability: 0.601
COR-L 105; first compound 0.8 µM
  relative viability: 0.618
COR-L 105; first compound 2.53 µM
  relative viability: 0.816
COR-L 105; first compound 8 µM
  relative viability: 0.645
LXF-289; first compound 0.08 µM
  relative viability: 0.9
LXF-289; first compound 0.253 µM
  relative viability: 0.93
LXF-289; first compound 0.8 µM
  relative viability: 0.91
LXF-289; first compound 2.53 µM
  relative viability: 0.896
LXF-289; first compound 8 µM
  relative viability: 0.84
NCI-H727; first compound 0.08 µM
  relative viability: 0.415
NCI-H727; first compound 0.253 µM
  relative viability: 0.421
NCI-H727; first compound 0.8 µM
  relative viability: 0.409
NCI-H727; first compound 2.53 µM
  relative viability: 0.409
NCI-H727; first compound 8 µM
  relative viability: 0.379
NCI-H2170; first compound 0.08 µM
  relative viability: 0.526
NCI-H2170; first compound 0.253 µM
  relative viability: 0.703
NCI-H2170; first compound 0.8 µM
  relative viability: 0.596
NCI-H2170; first compound 2.53 µM
  relative viability: 0.571
NCI-H2170; first compound 8 µM
  relative viability: 0.585
CAL-12T; first compound 0.08 µM
  relative viability: 1.35
CAL-12T; first compound 0.253 µM
  relative viability: 1.23
CAL-12T; first compound 0.8 µM
  relative viability: 1.23
CAL-12T; first compound 2.53 µM
  relative viability: 0.977
CAL-12T; first compound 8 µM
  relative viability: 1.08
NCI-H2009; first compound 0.08 µM
  relative viability: 1.2
NCI-H2009; first compound 0.253 µM
  relative viability: 1.14
NCI-H2009; first compound 0.8 µM
  relative viability: 1.13
NCI-H2009; first compound 2.53 µM
  relative viability: 1.2
NCI-H2009; first compound 8 µM
  relative viability: 1.01
HCC-366; first compound 0.08 µM
  relative viability: 1.01
HCC-366; first compound 0.253 µM
  relative viability: 1.12
HCC-366; first compound 0.8 µM
  relative viability: 1.02
HCC-366; first compound 2.53 µM
  relative viability: 0.986
HCC-366; first compound 8 µM
  relative viability: 0.976
PC-3 [JPC-3]; first compound 0.253 µM
  relative viability: 0.73
PC-3 [JPC-3]; first compound 0.8 µM
  relative viability: 0.798
PC-3 [JPC-3]; first compound 2.53 µM
  relative viability: 0.761
PC-3 [JPC-3]; first compound 8 µM
  relative viability: 0.732
NCI-H2126; first compound 0.08 µM
  relative viability: 0.835
NCI-H2126; first compound 0.253 µM
  relative viability: 0.827
NCI-H2126; first compound 0.8 µM
  relative viability: 0.841
NCI-H2126; first compound 2.53 µM
  relative viability: 0.824
NCI-H2126; first compound 8 µM
  relative viability: 0.868
BEN; first compound 0.08 µM
  relative viability: 0.0678
BEN; first compound 0.253 µM
  relative viability: 0.06
BEN; first compound 0.8 µM
  relative viability: 0.0809
BEN; first compound 2.53 µM
  relative viability: 0.0665
BEN; first compound 8 µM
  relative viability: 0.0584
HCC-15; first compound 0.08 µM
  relative viability: 0.797
HCC-15; first compound 0.253 µM
  relative viability: 0.724
HCC-15; first compound 0.8 µM
  relative viability: 0.66
HCC-15; first compound 2.53 µM
  relative viability: 0.636
HCC-15; first compound 8 µM
  relative viability: 0.621
HCC-827; first compound 0.253 µM
  relative viability: 1.03
HCC-827; first compound 0.8 µM
  relative viability: 0.897
HCC-827; first compound 2.53 µM
  relative viability: 0.999
HCC-827; first compound 8 µM
  relative viability: 0.981
NCI-H1993; first compound 0.08 µM
  relative viability: 0.797
NCI-H1993; first compound 0.253 µM
  relative viability: 0.826
NCI-H1993; first compound 0.8 µM
  relative viability: 0.91
NCI-H1993; first compound 2.53 µM
  relative viability: 0.933
NCI-H1993; first compound 8 µM
  relative viability: 0.806
HCC-44; first compound 0.08 µM
  relative viability: 0.965
HCC-44; first compound 0.253 µM
  relative viability: 1
HCC-44; first compound 0.8 µM
  relative viability: 0.95
HCC-44; first compound 2.53 µM
  relative viability: 0.884
HCC-44; first compound 8 µM
  relative viability: 0.971
LCLC-97TM1; first compound 0.08 µM
  relative viability: 0.527
LCLC-97TM1; first compound 0.253 µM
  relative viability: 0.489
LCLC-97TM1; first compound 0.8 µM
  relative viability: 0.215
LCLC-97TM1; first compound 2.53 µM
  relative viability: 0.415
LCLC-97TM1; first compound 8 µM
  relative viability: 0.402
PC-14; first compound 0.08 µM
  relative viability: 1.04
PC-14; first compound 0.253 µM
  relative viability: 1
PC-14; first compound 0.8 µM
  relative viability: 0.99
PC-14; first compound 2.53 µM
  relative viability: 1.09
PC-14; first compound 8 µM
  relative viability: 0.967
LC-2-ad; first compound 0.08 µM
  relative viability: 0.498
LC-2-ad; first compound 0.253 µM
  relative viability: 0.509
LC-2-ad; first compound 0.8 µM
  relative viability: 0.286
LC-2-ad; first compound 2.53 µM
  relative viability: 0.421
LC-2-ad; first compound 8 µM
  relative viability: 0.392
HOP-62; first compound 0.08 µM
  relative viability: 1.11
HOP-62; first compound 0.253 µM
  relative viability: 0.851
HOP-62; first compound 0.8 µM
  relative viability: 0.812
HOP-62; first compound 2.53 µM
  relative viability: 1.03
HOP-62; first compound 8 µM
  relative viability: 0.903
NCI-H2087; first compound 0.08 µM
  relative viability: 0.972
NCI-H2087; first compound 0.253 µM
  relative viability: 0.98
NCI-H2087; first compound 0.8 µM
  relative viability: 0.878
NCI-H2087; first compound 2.53 µM
  relative viability: 0.997
NCI-H2087; first compound 8 µM
  relative viability: 0.931
